Laboratory results taken from patent US4997843A, “2,4-disubstituted derivatives of tetrahydrofuran useful for the treatment of PAF mediated illnesses” (J Uriach & Cia S.A., priority 1987, dated 1991).
Where two headings read alike, the source gives them in different places.

How the values were obtained:
[1] = system: platelet aggregation induced by PAF; assay: Test 1: inhibition of platelet aggregation induced by PAF in vitro (rabbit platelet rich plasma, Born nephelometric technique); type: cell-based, male New Zealand albino rabbits; conditions: Oryctolagus cuniculus, PAF C18 16 nM final, read-out: IC50 (concentration of the drug needed to inhibit the platelet aggregation in a 50%)
Experimental: TEST 1: INHIBITION OF PLATELET AGGREGATION INDUCED BY PAF
The platelet rich plasma (PRP) is prepared by blood centrifugation at 250 xg for 10 min. at 4° C. and it is diluted with platelet poor plasma (PPP) obtained by additional centrifugation at 300 xg for 10 min. The amount of platelets is adjusted to […].

[2] = system: hypotension induced by PAF; assay: Test 2: inhibition of the hypotensive effect induced by PAF in normotense rats; type: in vivo, male Sprague Dawley rats; conditions: Rattus norvegicus, iv, anesthetized rats; compound via femoral vein 3 min before PAF (0.5 mg/Kg, i.v.); read-out: IC50 (inhibition of the hypotension induced by PAF)
Experimental: TEST 2--INHIBITION OF THE HYPOTENSIVE EFFECT INDUCED BY PAF IN NORMOTENSE RATS
Male Sprague Dawley rats, of 180-220 g of weight, anesthetized with sodium pentobarbital (50 mg/Kg, i.p. 1 mL/100 g) have been used. In order to measure the average arterial pressure a polyethylene catheter was introduced into the carotid artery. The arterial pressure was recorded with the help of a transducer connected with a R611 Beckman polygraph. The tested compounds were administrated through the femoral vein 3 min. before the injection of PAF (0.5 mg/Kg, i.v.).

SMILES	IC50 ([1]; Platelet) [µM]	ED50 [2] [mg/kg]	IC50 [1] [µM]
CCCCCCCCCCCCCCCCOCC1CC(COCCCCCC[n+]2ccsc2)CO1 (mixture of isomers) [Compound 63, (35)-cis, trans-3-[6-[(2-hexadecyloxymethyltetrahydrofuran-4-yl)methoxy]hexyl]thiazolium 4-methylbenzenesulfonate]	1.4	2.5	–
CCCCCCCCCCCCOCC1COC(COCCCCCCC[n+]2ccsc2)C1 (racemic) [Compound 1, (±)-cis, trans-3-[7-[(4-dodecyloxymethyltetrahydrofuran-2-yl)methoxy]heptyl]thiazolium 4-methylbenzenesulphonate]	2.5	3.7	–
CCCCCCCCCCCCCCOCC1COC(COCCCCCCC[n+]2ccsc2)C1 (racemic) [Compound 2, (±)-cis, trans-3-[7-(4-tetradecyloxymethyltetrahydrofuran-2-yl)methoxy]heptyl]thiazolium 4-methylbenzenesulfonate]	0.9	1.4	–
CCCCCCCCCCCCCCOCC1COC(COCCCCCC[n+]2ccsc2)C1 (racemic) [Compound 3, (±)-cis, trans-3-[6-[(4-tetradecyloxymethyltetrahydrofuran-2-yl)methoxy]hexyl]thiazolium 4-methylbenzenesulfonate]	0.7	3	–
CCCCCCCCCCCCCCCCOCC1COC(COCCCCCC[n+]2ccsc2)C1 (racemic) [Compound 4, (±)-cis, trans-3-[6-[(4-hexadecyloxymethyltetrahydrofuran-2-yl)methoxy]hexyl]thiazolium 4-methylbenzenesulfonate]	1.4	1.2	–
CCCCCCCCCCCCCCCCOCC1COC(COC(=O)CCCCC[n+]2ccsc2)C1 (racemic) [Compound 5, (±)-cis, trans-3-[6-[(4-hexadecyloxymethyltetrahydrofuran-2-yl)methoxy]-6-oxohexyl]thiazolium 4-methylbenzenesulfonate]	4.8	1.6	–
CCCCCCCCCCCCCCCCCCOCC1COC(COC(=O)CCCCC[n+]2ccsc2)C1 (racemic) [Compound 6, (±)-cis, trans-3-[6-[(4-octadecyloxymethyltetrahydrofuran-2-yl)methoxy]-6-oxohexyl]thiazolium 4-methylbenzenesulfonate]	8.6	1.9	–
CCCCCCCCCCCCCCCNC(=O)OCC1COC(COC(=O)CCCCC[n+]2ccsc2)C1 (racemic) [Compound 7, (±)-cis, trans-3-[6-oxo-6-[(4-pentadecylaminocarbonyloxymethyltetrahydrofuran-2-yl)methoxy]hexyl]thiazolium 4-methylbenzenesulfonate]	5.9	3.6	–
CCCCCCCCCCCCCCCCOCC1COC(COC(=O)NCc2cccc[n+]2CC)C1 (racemic) [Compound 10, (±)-cis, trans-N-ethyl-2-[[[(4-hexadecyloxymethyltetrahydrofuran-2-yl)methoxy]carbonyl]amino]methylpyridinium iodide]	3.8	6.6	–
CCCCCCCCCCCCCCCCOCC1COC(COC(=O)N(Cc2cccc[n+]2C)C(C)=O)C1 (racemic) [Compound 12, (±)-cis, trans-N-methyl-2-[N-acetyl-[[[(4-hexadecyloxymethyltetrahydrofuran-2-yl)methoxy]carbonyl]amino]methyl]pyridinium iodide]	0.1	0.23	–
CCCCCCCCCCCCCCCCCCOCC1CC(COCCCCC[n+]2ccsc2)CO1 (racemic) [Compound 62, (±)-cis, trans-3-[5-[(2-octadecyloxymethyltetrahydrofuran-4-yl)methoxy]pentyl]thiazolium 4-methylbenzenesulfonate]	2.1	–	–
CCCCCCCCCCCCCCC1COC(COCCCCCC[N+](C)(C)C)C1 (racemic) [Compound 71, (±)-cis, trans-6-[6-(4-tetradecyltetrahydrofuran-2-yl)methoxy]N,N,N-trimethylhexaminium 4-methylbenzenesulfonate]	8.2	–	–
CCCCCCCCCCCCCCC1COC(COCCCCCC[n+]2ccn(C)c2)C1 (racemic) [Compound 73, (±)-cis, trans-3-methyl-1-[6-[(4-tetradecyltetrahydrofuran-2-yl)methoxy]hexyl]imidazolium 4-methylbenzenesulfonate]	15	–	–
CCCCCCCCCCCCCCC1COC(COCCCCCC[n+]2ccccc2)C1 (racemic) [Compound 74, (±)-cis, trans-1-[6-[(4-tetradecyltetrahydrofuran-2-yl)methoxy]hexyl]pyridinium methanesulfonate]	6.3	–	–
CCCCCCCCCCCCCCC1COC(COC(=O)CCCCC[n+]2ccsc2)C1 (racemic) [Compound 75, (±)-cis, trans-3-[6-[(4-tetradecyltetrahydrofuran-2-yl)methoxy]-6-oxohexyl]thiazolium 4-methylbenzenesulfonate]	50	–	–
CCCCCCCCCCCCCC[C@@H]1CO[C@@H](COCCCCCC[n+]2ccsc2)C1 (racemic) [Compound 84, (±)-trans-3-[6-[(4-tetradecyltetrahydrofuran-2-yl)methoxy]hexyl]thiazolium 4-methylbenzenesulfonate]	–	–	2.6

Now from value to compound, other results behind:

IC50 ([1]; Platelet) [µM]	SMILES	ED50 [2] [mg/kg]	IC50 [1] [µM]
180	CCCCCCCCCCCCCCC1COC(COC(=O)CCCCC[N+](C)(C)C)C1 (racemic) [Compound 76]	–	–
120	CCCCCCCCCCCCCCC1COC(COC(=O)CCCCC[n+]2ccccc2)C1 (racemic) [Compound 77, (±)-cis, trans-1-[6-[(4-tetradecyltetrahydrofuran-2-yl)methoxy]-6-oxohexyl]pyridinium 4-methylbenzenesulfonate]	–	–
210	CCCCCCCCCCCCCCC1COC(COC(=O)CCCCC[n+]2ccn(C)c2)C1 (racemic) [Compound 78, (±)-cis, trans-3-methyl-1-[6-[(4-tetradecyltetrahydrofuran-2-yl)methoxy]-6-oxohexyl]imidazolium 4-methylbenzenesulfonate]	–	–
39	CCCCCCCCCCCCCCC1COC(COCCCC[n+]2ccsc2)C1 (racemic) [Compound 79, (±)-cis, trans-3-[4-[(4-tetradecyltetrahydrofuran-2-yl)methoxy]butyl]thiazolium 4-methylbenzenesulfonate]	–	–
75	CCCCCCCCCCCCCCC1COC(COCCCC[n+]2ccccc2C)C1 (racemic) [Compound 80, (±)-cis, trans-2-methyl-1-[4-[(4-tetradecyltetrahydrofuran-2-yl)methoxy]butyl]pyridinium 4-methylbenzenesulfonate]	–	–
51	CCCCCCCCCCCCCCC1COC(COCCCC[N+]2(C)CCOCC2)C1 (racemic) [Compound 81, (±)-cis, trans-4-methyl-4-[4-[(4-tetradecyltetrahydrofuran-2-yl)methoxy]butyl]morpholinium 4-methylbenzenesulfonate]	–	–
2.6	CCCCCCCCCCCCCC[C@@H]1CO[C@H](COCCCCCC[n+]2ccsc2)C1 (relative stereo) [Compound 83, (±)-cis-3-[6-[(4-tetradecyltetrahydrofuran-2-yl)methoxy]hexyl]thiazolium4-methylbenzenesulfonate]	–	–
